Experiments:
Format in all cases: in vivo
[1] = test system: rats subjected to FPI (TBI model); experiment: Rotarod vestibulomotor performance after TBI (rat FPI); conditions: administered 15 minutes after TBI
Procedure: (§1) Craniotomy and lateral fluid percussion injury (FPI) were performed using a previously validated and published procedure. Farias S, et al. J. Neurotraum, 26, 1977-1986, 2009; Frey L. C. et al. J. Neurosci. Methods 177, 267-272, 2009. Throughout the specification animals subjected to this protocol are referred to as having a TBI since this treatment protocol is a TBI model. Briefly, rats were anesthetized with 3-5% isoflurane, isosol, VEDCO Inc., St. Joseph, Mo., via nose cone and mounted in a stereotaxic head frame. A 3 millimeter (mm) craniotomy was created and centered at 3 mm caudal to bregma and 3.5 mm left of the sagittal suture, keeping the exposed dura intact. One steel support screw was embedded in the skull on the contralateral side. A Luer-Lock hub with an inside diameter of 3.5 mm was centered over the craniotomy and bonded to the skull with cyanoacrylate adhesive and capped. Dental acrylic, Snap, Parka, Inc., Edgewood, N.J., was poured around the huh and screw. […] Moistened food pellets were provided after injury, and all animals were monitored daily for well-being and weight changes.
For rotarod testing, the rod's rotation was programmed to accelerate from 0 to 50 rpm over the course of 300 seconds. Four trials were run at each selected time point after injury and the individual trial and mean times for each animal are recorded. […]

[2] = test system: rats subjected to FPI (TBI model); experiment: Volume of cell death 72 hours after TBI (rat FPI); conditions: 6 mg/kg IV 30 minutes prior to TBI; measured 72 hours later
Procedure: as §1, with “screw. After the acrylic hardened antibiotic ointment was applied around the cap and the animals were returned to their cages.” for “screw.”, “changes. […]” for “changes.”
Rats were administered a single-dose of the FLAP inhibitor MK-886, 6 mg/kg IV by tail vein, 30 minutes prior to TBI. […] Results are expressed as the average±SEM. […]

[3] = test system: rats subjected to FPI (TBI model); experiment: Radial arms water maze (RAWM) after TBI (rat FPI)
Procedure: (§2) Craniotomy and lateral fluid percussion injury (FPI) were performed using a previously validated and published procedure. Farias S, et al. J. Neurotraum, 26, 1977-1986, 2009; Frey L. C. et al. J. Neurosci. Methods 177, 267-272, 2009. Throughout the specification animals subjected to this protocol are referred to as having a TBI since this treatment protocol is a TBI model. Briefly, rats were anesthetized with 3-5% isoflurane, isosol, VEDCO Inc., St. Joseph, Mo., via nose cone and mounted in a stereotaxic head frame. A 3 millimeter (mm) craniotomy was created and centered at 3 mm caudal to bregma and 3.5 mm left of the sagittal suture, keeping the exposed dura intact. One steel support screw was embedded in the skull on the contralateral side. A Luer-Lock hub with an inside diameter of 3.5 mm was centered over the craniotomy and bonded to the skull with cyanoacrylate adhesive and capped. Dental acrylic, Snap, Parka, Inc., Edgewood, N.J., was poured around the huh and screw. After the acrylic hardened antibiotic ointment was applied around the cap and the animals were returned to their cages. The next day, approximately 15-20 hours later, animals were anesthetized with isoflurane in an induction chamber, immediately connected to the FPI apparatus, and received a 20 millisecond (ms) pulse of pressurized sterile saline at 2.7 atmospheres (atm) of pressure to simulate a moderate severity impact on the intact dural surface through the craniotomy before awakening from anesthesia. […] All animals received a subcutaneous injection of the analgesic, buprenorphine, 0.05 milligram/kilogram (mg/kg) Buprenex, prior to craniotomy, and subsequent injections every 12 hours for two days. Moistened food pellets were provided after injury, and all animals were monitored daily for well-being and weight changes.
The indole FLAP inhibitor MK-886 was prepared at a dose of 2.5 milligram/milliliter (mg/ml), dissolved in dimethyl sulfoxide (DMSO) and then diluted with 0.9% saline to 10% DMSO. The rats were briefly anesthetized with 3-3.5% isoflurane and either […] at a dose of 6 mg/kg or vehicle was administered intravenously (IV) by tail vein injection. […]
The radial arms water maze (RAWM) consists of six 50 centimeter (cm) radial arms emanating from a circular area in a 160 cm diameter tank of 20.5° C. water, surrounded by 4 walls, each with a unique pattern. […] The start arm for each trial was determined in a pseudorandom fashion with three randomized sequences of the live non-goal arms. […] Videos for each of the 30 trials per animal were analyzed using Topscan (Cleversys Inc.) tracking software for errors and perseverance duration. […]
All data shown are mean+/−standard error of the mean unless otherwise noted. Results were analyzed in SPSS 20 (IBM) or Prism 5.0 (GraphPad). […]

[4] = test system: leukotriene LTC4 production; experiment: LTC4 levels in brain after rat fluid percussion injury (RP LC-MS/MS)
Procedure: as §2
Two groups of four rats each were subjected to FPI as described above. Four days prior to the FPI, each animal was briefly anesthetized for less than 5 minutes with 3-3.5% isoflurane and administered either NaCl 0.9%, 2 ml/kg IV (vehicle) or vinblastine sulfate 0.5 mg/kg IV in an identical volume. Neutrophil depletion was verified by complete cell blood counts (CBC) in vinblastine treated animals 4 days after administration. Both groups were euthanized by decapitation and the brain lipids extracted 1 hour after FPI. The amounts of LTC4 formed, measured by RP LC-MS/MS and normalized per milligram of protein, were compared between groups using one-way analysis of variance and the Student-Newman-Keuls test for multiple comparisons.
The indole FLAP inhibitor MK-886 was prepared at a dose of 2.5 milligram/milliliter (mg/ml), dissolved in dimethyl sulfoxide (DMSO) and then diluted with 0.9% saline to 10% DMSO. The rats were briefly anesthetized with 3-3.5% isoflurane and either […] at a dose of 6 mg/kg or vehicle was administered intravenously (IV) by tail vein injection. All animals were allowed to wake before undergoing additional procedures.
Cortical and hippocampal regions from ipsilateral and contralateral hemispheres were collected in 4 ml of 80% methanol, homogenized with a Dounee homogenizer, and internal standards were added to the homogenates. Protein content was measured using bicinchoninic acid assay (BCA) for protein to normalize lipid levels to the amount of tissue. Samples were centrifuged and the supernatant was collected. Samples were diluted to a final methanol concentration of lower than 15% and then the lipids were extracted using a solid phase extraction cartridge, Strata C18-E, 100 mg/1 ml, Phenomenex, Torrence Calif. The eluate, 1 ml of methanol, was dried down and reconstituted in 70 microliters (μl) of High Performance Liquid Chromotography (HPLC) solvent A, which is 8.3 mM acetic acid buffered to pH 5.7 with NH4OH, plus […] of solvent B, which is acetonitrile/methanol, 65/35, v/v. […]

[5] = MK-886 6 mg/kg IV 30 minutes prior to TBI, 1 hour after TBI
[6] = MK-886 6 mg/kg IV 30 minutes prior to TBI, measured 1 hour after TBI
[7] = single dose 15 minutes after TBI

CC(C)c1ccc2c(c1)c(SC(C)(C)C)c(CC(C)(C)C(=O)O)n2Cc1ccc(Cl)cc1 [MK-886, 1-[(4-Chlorophenyl)methyl]-3-[(1,1-dimethylethyl)thio]-α,α-dimethyl-5-(1-methylethyl)-1H-Indole-2-propanoic acid]
vestibulomotor performance on the rotarod compared to vehicle [1]: improved vestibulomotor performance | cell death induced by TBI [2]: significant reductions in cell death | initial task learning versus vehicle ([3]; Day 1, 15 swim trials, within sham group or within TBI group): no significant differences | errors per swim, last five swim trials of the reversal task ([3]; TBI animals, injection 30 minutes post-injury, Day 2): 1.26+/−0.700 | perseverance for the previous goal arm, swim 1 to swim 3 of reversal task ([3]; TBI rats, injection 30 minutes post-injury, Day 2): spent less time in the previous goal arm by swim 3 | errors per swim, last five swim trials of the reversal task ([3]; sham animals, injection 30 minutes post-injury, Day 2): 0.850+/−0.583 | LTC4 levels lower than vehicle-treated injured animals, contralateral right hemisphere [4, 5]: 64% | LTC4 levels lower than vehicle-treated injured animals, ipsilateral left hemisphere [4, 5]: 85% | LTC4 level, contralateral right hemisphere [4, 6]: 2.6+/−0.80 pg/mg protein | LTC4 level, ipsilateral left hemisphere [4, 6]: 3.39+/−0.42 pg/mg protein | LTC4 level, ipsilateral cortex ([4]; MK-886-treated injured rats): undetectable | LTC4 level, ipsilateral hippocampus ([4]; MK-886-treated injured rats): undetectable | LTC4 level, contralateral hemisphere [4, 7]: below the detectable threshold | LTC4 level, ipsilateral hemisphere [4, 7]: below the detectable threshold
